Assay results reported in patent US8759363B2, “Quinazoline-based T cell proliferation inhibitors” (Yissum Research Development Company of the Hebrew …, priority 2010, dated 2014).
Values joined by “and” are separate entries in the source; they are usually repeats but may differ in a detail not shown here. Equal values may be shown once. Read-outs that look alike come from different tables or passages of the source.

Experiments:
PC3 = assay: PC-3 proliferation, BrdU uptake; type: cell-based; conditions: Homo sapiens
[1] = system: PC-3, HEK293, NIH-3T3, A375, MDA-MB-231; assay: BrdU uptake by non-hematopoietic cell lines compared with PBMC and Jurkat; type: cell-based; conditions: stimulated and non-stimulated cells
Method: Cells were depleted of fetal calf serum (FCS) for 12 hours. They were then stimulated to proliferate by addition of ConA (10 μg/ml) for PBMC from healthy individuals and for Jurkat cells, FCS (10%) for HEK293 and A375 cells, PDGF (30 ng/ml) for NIH 3T3 cells, and EGF (30 ng/ml) for MDA-MB-231, Cells (1×10^5) were cultured in 96-well plates for 3 days in the presence or absence of inhibitors at the concentrations specified in the text. Each condition was tested in duplicate wells.
Proliferation was assessed by BrdU incorporation using a colorimetric ELISA kit (Roche, Germany). Subsequent to labeling with 10 μM BrdU, DNA was denatured and the cells were incubated with anti-BrdU-POD, prior to the addition of colorimetric substrate (TMB). The reaction product was quantified by measuring absorbance at 450 nm in an ELISA plate reader (ELx800 BIO-TEK Instruments Inc.).
To characterize the mode of action of 2 (S101) in more detail, we first examined whether 2 inhibits non-hematopoietic cell lines. We studied the effect of 2 on the growth of four cell lines: NIH 3T3 (mouse embryonic fibroblasts), A-431 (human vulval carcinoma cells), MDA-MB-468 (human breast carcinoma cells), and PANC-1 (human pancreatic carcinoma cells) (FIGS. 1A-B). We also tested the inhibitors on human keratinocytes. […]

[2] = system: CD8+ (2C) and CD4+ (TEA) T cells; assay: MLR, double-positive CD8+1B2+ (2C) or CD4+/Va2+ (TEA) effector cells by FACS; type: cell-based, mouse; conditions: 72 h MLR
Description: Mice used included male and female 6- to 12-week-old CB6/F1 mice, obtained from the Roscoe B. Jackson Memorial Laboratory (The Jackson Laboratory, Bar Harbor, Me., http://www.jax.org). A breeding pair of transgenic (Tg) H-2b mice expressing the T-cell antigen receptor (TCR) 1B2 from the CD8+ clone 2C with specificity for H-2Ld was kindly provided by Janko Nikolic-Zugic (Memorial Sloan-Kettering Cancer Center, New York, http://www.mskcc.org). A breeding pair of Tg H-2b mice expressing the TCR from the CD4+ clone known as TEA with specificity for I-Ead allopeptide, cross-presented by host APC and bound to I-Ab and was kindly provided by Alexander Y. Rudensky (University of Washington, Seattle). I-Ead allopeptide corresponds to the positions 52 to 68 from the alpha-chain of I-E class II molecules and is expressed in all APCs from H-2b/I-E+ strains (CB6F1-hybrid of C57BL/6 and Balb/c). C57BL/6 mice are H-2b but I-E−, whereas BALB/c are H-2d and I-E+, and therefore their F1 hybrids are H-2b/1-E+ and able to directly present antigen.
Responder 2C splenocytes were harvested, and the cell suspensions were treated with Tris-buffered ammonium chloride to remove RBC. […] On day 3, the MLR cultures were harvested, and analyzed by FACS for CD4 or CD8 levels.
FACS analysis was performed using a modified FACScan (BD Biosciences, Mountain View, Calif.). Fluorescence data were collected during one minute. […]

[3] = In vitro percutaneous absorption and penetration, porcine ear skin; type: in vitro ADME
Method: Fresh porcine ears were obtained from local slaughterhouse. Dorsal side skin was surgically removed from the ears. Hairs were trimmed off with an electric trimmer. Subcutaneous fat was carefully cleaned. […] They were stored at −20° C. until use.
Compound 2 was dispersed into Labrasol® (Gattefosse, France) The mixture was heated to 35° C. and stirred until solubilized. Final concentrations: 0.108% and 0.316%. The final products are clear and somewhat viscous solutions.
The skin samples were mounted on Zyleris' High-Throughput Screening (HTS) station. Each individual cell has a diffusion area of 0.503 cm^2 (8 mm in diameter). The receptor chamber was filled with 2.0 ml of 5% Oleth-20 in 1×PBS buffer, pH 7.4 (10 mM Phosphate, 138 mM NaCl and 2 mM KCl), which was continuously mixed at 200 r.p.m. The screening experiments were carried out at 32±0.1° C. Oleth-20 is a polyethylene glycol ether of Oleyl Alcohol [Poly(oxy-1,2-ethanediyl) 20 mol Ethylene Oxide average molar ratio] (Spectrum Chemical, California).
The samples were dosed at 5 mg for both formulations. Each formulation was run in three replicates. At the end of each time interval (2, 12, and 24 h), the skin surface was wiped with cotton ball. The standard tape-stripping method was used to remove the stratum corneum (SC) layer. Repeated tape-stripping was continued until SC layer was disappeared (15 strips). Compound 2 absorbed in epidermis/dermis layer was collected by solvent extraction with DMSO. After tape-stripping, the remaining skin samples were minced and vortexed with 1.5 ml DMSO. The supernatant was separated. The extraction step was repeated three times. The supernatants were combined and ready for analysis.
The analysis was carried out with a Shimadzu LC-10ADVP instrument with Varian Polaris 3 C18-A, 50×3.0 mm, column. Mobile Phase A: 0.1% formic acid in water. Mobile Phase B: 0.1% formic acid in methanol. Flow rate: 0.4 ml/min.
MS system is an AB Scienx API4000 operated at positive ionization mode. The calibration range is 2.50-25,000 ng/ml.
Quality control of the screening experiments was established by measuring mass balances of a couple of selected runs (spot-check). Measurement of mass balance is to determine total amount of 2 recovered after each experiment. After the selected experiments, total amount of 2 left on the skin surface, absorbed in stratum corneum, in epidermis/dermis layer, and collected in the receptor medium was extracted and determined by LC-MS/MS analysis. The total amount was then compared to the initial dosing amount to determine recovery percentage. Two of the 12 hr runs for the 0.316% formulation was selected for the spot-check. […] They are within acceptable range of 80-120%.

Q: Which results are given for `COc1cc(-c2nc(Nc3ccc(C)cc3)c3ccccc3n2)cc(OC)c1OC` [Compound 2, N-p-tolyl-2-(3,4,5-trimethoxyphenyl)quinazolin-4-amine]?
A: IC50 (PC3; PC3, non-stimulated, read-out: IC50 of non-stimulated cells): ~10 µM; IC50 (PC3; PC3, stimulated, read-out: IC50 of stimulated cells): > 10 µM; IC50 values in various cells in comparison to IC50 for PBMC and Jurkat cells [1]: higher by two orders of magnitude; percentage of double-positive effector cells [2]: reduced in a dose dependent manner; skin concentration relative to the IC50 ([3]; after 24 h, 0.3% 2 in Labrasol): 1000 folds; final concentration in the skin (epidermis/dermis) ([3]; after 24 h, initial concentration 0.3% 2 in Labrasol, estimated): higher than 114 μM; penetration of the epidermis/dermis layer ([3]; porcine ears skin, Labrasol formulation): able to penetrate; recovery percentage (mass balance) ([3]; two 12 hr runs, 0.316% formulation): 89% and 114%
